Measurements: patent US9150554B2, “Fused ring inhibitors of hepatitis C” (Presidio Pharmaceuticals, Inc., priority 2009, dated 2015)

system: HCV 1b_Huh-Luc/Neo-ET cell line persistently expressing a bicistronic genotype 1b replicon in Huh 7 cells; test: HCV replicon assay, luciferase enzyme activity readout; assay type: cell-based; conditions: Hepatitis C virus, 72 h incubation, average EC50 range, read-out: Inhibition of HCV genotype 1b
Procedure: Biological activity of the compounds of the invention was determined using an HCV replicon assay. The HCV 1b_Huh-Luc/Neo-ET cell line persistently expressing a bicistronic genotype 1b replicon in Huh 7 cells was obtained from ReBLikon GMBH. This cell line was used to test compound inhibition using luciferase enzyme activity readout as a measurement of compound inhibition of replicon levels.
On Day 1 (the day after plating cells), each compound is added in triplicate to the cells. Plates are incubated for 72 h prior to determining luciferase levels. Enzyme activity was measured using a Bright-Glo Kit (cat. number E2620) manufactured by Promega Corporation. The following equation was used to generate a percent control value for each compound. % Control=(Compound Luciferase Level/Control Luciferase Level)*100
The EC50 value was determined using GraphPad Prism and the following equation: Y=Bottom asymptote+(Top asymptote−Bottom asymptote)/(1+10^((Log EC50−X)*HillSlope))
EC50 values of compounds are determined several times in the replicon assay to generate average EC50 values. […]

Row | SMILES | EC50
1 | COC(=O)N[C@H](C(=O)N1CCC[C@H]1c1ncc(-c2ccc3c(c2)Cc2cc(F)c(-c4cnc([C@@H]5CCCN5C(=O)[C@@H](NC(=O)OC)[C@@H](C)OC)[nH]4)cc2O3)[nH]1)[C@@H](C)OC [Compound 40] | < 1 nM
2 | COC(=O)N[C@@H](C(=O)N1CCOC[C@H]1c1ncc(-c2ccc3c(c2)Oc2ccc(-c4cnc([C@@H]5COCCN5C(=O)[C@H](NC(=O)OC)c5ccccc5)[nH]4)cc2O3)[nH]1)c1ccccc1 [Compound 65] | < 1 nM
3 | COC(=O)N[C@H](C(=O)N1CCC[C@H]1c1ncc(-c2ccc3c(c2)Oc2ccc(-c4cnc([C@@H]5CCCN5C(=O)[C@@H](NC(=O)OC)C5CCOCC5)[nH]4)cc2O3)[nH]1)C1CCOCC1 [Compound 35] | < 1 nM
4 | COC(=O)N[C@@H](C(=O)N1CCC[C@H]1c1ncc(-c2ccc3nc4cc(-c5cnc([C@@H]6CCCN6C(=O)[C@H](NC(=O)OC)c6ccccc6)[nH]5)ccc4nc3c2)[nH]1)c1ccccc1 [Compound 2] | < 1 nM
5 | COC(=O)N[C@H](C(=O)N1CCC[C@H]1c1ncc(-c2ccc3c(c2)Cc2cc(-c4cnc([C@@H]5CCCN5C(=O)[C@@H](NC(=O)OC)C(C)C)[nH]4)ccc2O3)[nH]1)C(C)C [Compound 4] | 10 to 999 nM
6 | COC(=O)N[C@@H](C(=O)N1CCCC[C@H]1c1ncc(-c2ccc3c(c2)Oc2ccc(-c4cnc([C@@H]5CCCCN5C(=O)[C@H](NC(=O)OC)c5ccccc5)[nH]4)cc2O3)[nH]1)c1ccccc1 [Compound 48] | < 1 nM
7 | COC(=O)N[C@H](C(=O)N1CCC[C@H]1c1ncc(-c2ccc3c(c2)CN(C)c2ccc(-c4cnc([C@@H]5CCCN5C(=O)[C@@H](NC(=O)OC)C(C)C)[nH]4)cc2CN3C)[nH]1)C(C)C [Compound 13] | < 1 nM
8 | C=CC[C@H](NC(=O)OC)C(=O)N1CCC[C@H]1c1ncc(-c2ccc3c(c2)Oc2ccc(-c4cnc([C@@H]5CCCN5C(=O)[C@H](CC=C)NC(=O)OC)[nH]4)cc2O3)[nH]1 [Compound 55] | < 1 nM
9 | CC[C@H](C)[C@H](NC(=O)OC)C(=O)N1CCC[C@H]1c1ncc(-c2ccc3c(c2)Cc2ccc(-c4cnc([C@@H]5CCCN5C(=O)[C@@H](NC(=O)OC)[C@@H](C)CC)[nH]4)cc2O3)[nH]1 [Compound 31] | < 1 nM
10 | CC[C@H](C)[C@H](NC(=O)OC)C(=O)N1CCC[C@H]1c1ncc(-c2cc3c(cc2F)Cc2cc(-c4cnc([C@@H]5CCCN5C(=O)[C@@H](NC(=O)OC)C5CCOCC5)[nH]4)ccc2O3)[nH]1 [Compound 59] | < 1 nM
11 | COC(=O)N[C@@H](C(=O)N1CCC[C@H]1c1ncc(-c2ccc3oc4cc(-c5cnc([C@@H]6CCCN6C(=O)[C@H](NC(=O)OC)c6ccccc6)[nH]5)c(F)cc4c(=O)c3c2)[nH]1)c1ccccc1 [Compound 24] | < 1 nM
12 | COC(=O)N[C@H](C(=O)N[C@@H](C)c1ncc(-c2ccc3c(c2)Oc2ccc(-c4cnc([C@H](C)NC(=O)[C@@H](NC(=O)OC)C(C)C)[nH]4)cc2O3)[nH]1)C(C)C [Compound 39] | < 1 nM
13 | COC(=O)N[C@H](C(=O)N1CCC[C@H]1c1ncc(-c2ccc3c(c2)Oc2ccc(-c4cnc([C@@H]5CCCN5C(=O)[C@@H](NC(=O)OC)C(C)C)[nH]4)cc2C3(C)C)[nH]1)C(C)C [Compound 10] | < 1 nM
14 | COC(=O)N[C@H](C(=O)N1CCOC[C@H]1c1ncc(-c2ccc3c(c2)Oc2ccc(-c4cnc([C@@H]5COCCN5C(=O)[C@@H](NC(=O)OC)C(C)C)[nH]4)cc2O3)[nH]1)C(C)C [Compound 64] | < 1 nM
15 | COC(=O)N[C@H](C(=O)N1CCC[C@H]1c1ncc(-c2ccc3c(c2)Cc2ccc(-c4cnc([C@@H]5CCCN5C(=O)[C@@H](NC(=O)OC)C(C)C)[nH]4)cc2O3)[nH]1)C(C)C [Compound 6] | < 1 nM
16 | COC(=O)N[C@H](C(=O)N1CCC[C@H]1c1ncc(-c2ccc3c(c2)c(=O)c2ccc(-c4cnc([C@@H]5CCCN5C(=O)[C@@H](NC(=O)OC)C(C)C)[nH]4)cc2n3C)[nH]1)C(C)C [Compound 11] | < 1 nM
17 | COC(=O)N[C@H](C(=O)N1CSC[C@H]1c1ncc(-c2ccc3c(c2)Oc2ccc(-c4cnc([C@@H]5CSCN5C(=O)[C@@H](NC(=O)OC)C(C)C)[nH]4)cc2O3)[nH]1)C(C)C [Compound 36] | < 1 nM
18 | COC(=O)N[C@H](C(=O)N1CCC[C@H]1c1ncc(-c2ccc3c(=O)c4cc(-c5cnc([C@@H]6CCCN6C(=O)[C@@H](NC(=O)OC)C(C)C)[nH]5)ccc4oc3c2)[nH]1)C(C)C [Compound 8] | < 1 nM
19 | CC[C@H](C)[C@H](NC(=O)OC)C(=O)N1CCC[C@H]1c1ncc(-c2ccc3c(c2)Oc2ccc(-c4cnc([C@@H]5CCCN5C(=O)[C@@H](NC(=O)OC)[C@@H](C)CC)[nH]4)cc2O3)[nH]1 [Compound 46] | < 1 nM
20 | COC(=O)N[C@H](C(=O)N1CCC[C@H]1c1ncc(-c2ccc3c(=O)c4cc(-c5cnc([C@@H]6CCCN6C(=O)[C@H](NC(=O)OC)c6ccccc6)[nH]5)ccc4oc3c2)[nH]1)C(C)C [Compound 15] | < 1 nM
21 | COC(=O)N[C@H](C(=O)N1CCC[C@H]1c1ncc(-c2ccc3c(c2)Cc2cc(Cl)c(-c4cnc([C@@H]5CCCN5C(=O)[C@@H](NC(=O)OC)[C@@H](C)OC)[nH]4)cc2O3)[nH]1)[C@@H](C)OC [Compound 62] | < 1 nM
22 | [2H]C([2H])([2H])C([2H])(C([2H])([2H])[2H])[C@]([2H])(NC(=O)OC)C(=O)N1CCC[C@H]1c1ncc(-c2ccc3c(c2)Oc2ccc(-c4cnc([C@@H]5CCCN5C(=O)[C@@]([2H])(NC(=O)OC)C([2H])(C([2H])([2H])[2H])C([2H])([2H])[2H])[nH]4)cc2O3)[nH]1 [Compound 57] | < 1 nM
23 | CC[C@H](C)[C@H](NC(=O)OC)C(=O)N1CCC[C@H]1c1ncc(-c2ccc3c(c2)Cc2cc(Cl)c(-c4cnc([C@@H]5CCCN5C(=O)[C@@H](NC(=O)OC)[C@@H](C)CC)[nH]4)cc2O3)[nH]1 [Compound 63] | < 1 nM
24 | C#CC[C@H](NC(=O)OC)C(=O)N1CCC[C@H]1c1ncc(-c2ccc3c(c2)Oc2ccc(-c4cnc([C@@H]5CCCN5C(=O)[C@H](CC#C)NC(=O)OC)[nH]4)cc2O3)[nH]1 [Compound 56] | < 1 nM
25 | O=C(N[C@@H](C(=O)N1CCC[C@H]1c1ncc(-c2ccc3oc4cc(-c5cnc([C@@H]6CCCN6C(=O)[C@H](NC(=O)OC6CCOCC6)c6ccccc6)[nH]5)c(F)cc4c(=O)c3c2)[nH]1)c1ccccc1)OC1CCOCC1 [Compound 25] | < 1 nM
26 | COC(=O)N[C@H](C(=O)N1CCCC[C@H]1c1ncc(-c2ccc3c(c2)Oc2ccc(-c4cnc([C@@H]5CCCCN5C(=O)[C@@H](NC(=O)OC)C(C)C)[nH]4)cc2O3)[nH]1)C(C)C [Compound 47] | < 1 nM
27 | COC(=O)N[C@H](C(=O)N1CCC[C@H]1c1ncc(-c2cc3oc4ccc(-c5cnc([C@@H]6CCCN6C(=O)[C@H](NC(=O)OC)c6ccccc6)[nH]5)cc4c(=O)c3cc2F)[nH]1)C(C)C [Compound 27] | < 1 nM
28 | COC(=O)N[C@H](C(=O)N1CCC[C@H]1c1ncc(-c2ccc3c(c2)Cc2ccc(-c4cnc([C@@H]5CCCN5C(=O)[C@@H](NC(=O)OC)C5CCCC5)[nH]4)cc2O3)[nH]1)C1CCCC1 [Compound 32] | < 1 nM
